Measurements as given in patent publication US9433608B2 (priority 2013, dated 2016).

Legend:
Conditions in all cases: in vivo
[1] = test system: subacute temporal lobe infarct with encephalomalacia; parameters: species or system human
[2] = test system: 12 mm right basal ganglia infarct (acute lacunar infarct); parameters: species or system human
[3] = test system: TIA (transient ischemic attack) symptoms

SMILES | mental clarity noted by the patient [1] | vision in the right hemifield [1] | function after treatment [2] | leg weakness, expansion of the infarct, symptoms [2] | clinical state the next day [3] | effect on penumbra of injury [3] | sedation (side effect) on the second night [3] | swallowing on the second night [3]
CN1C(=O)CN=C(c2ccccc2)c2cc(Cl)ccc21 [diazepam, 7-chloro-1,3-dihydro-1-methyl-5-phenyl-1,4-benzodiazepin-2(3H)-one] | clearing of fogginess | unable to regain vision in the right hemifield | returned to pre-stroke function | the weakness resolved and there was no further expansion of the infarct or worsening of symptoms | – | – | – | –
CC12CC3CC(C)(C1)CC(N)(C3)C2 [memantine, 3,5-dimethyladamantan-1-amine] | clearing of fogginess | unable to regain vision in the right hemifield | returned to pre-stroke function | the weakness resolved and there was no further expansion of the infarct or worsening of symptoms | – | – | – | –
Cc1ncc2n1-c1ccc(Cl)cc1C(c1ccccc1F)=NC2 [midazolam, 8-chloro-6-(2-fluorophenyl)-1-methyl-4H-imidazo[1,5a][1,4]benzodiazepine] | – | – | – | – | sitting talking to relatives, mentating better but could not swallow their own saliva | preventing expansion of the penumbra of injury | drowsy | could swallow their own saliva
